Measurements taken from patent publication EP0643069B1, “2'-DEOXY-2'-FLUOROCOFORMYCIN AND STEREOISOMERS THEREOF” (priority 1991, dated 1993).
Converted amounts (≈) assume the structure as drawn. Where two headings read alike, the source gives them in different places.

Key:
Providencia sp. 2991 = assay: Minimum growth-inhibitory concentration, standard serial dilution assay; format: cell-based
Method: (§1) That is, a test was conducted to measure the minimum growth-inhibitory concentrations (MIC, mcg/ml) of these compounds against some microorganisms using a standard serial dilution assay method.

[1] = tested on: Providencia rettgeri GN466; assay: as above; format: cell-based
Method: as §1

adenosine deaminase = biological target: T1, adenosine deaminase (Bos taurus, UniProt P56658); assay: Enzyme-inhibitory activity against adenosine deaminase (optical density at 265 nm); format: biochemical
T1 construct: purchased Sigma Chemical Type VI
T1 sequence (P56658 1-363): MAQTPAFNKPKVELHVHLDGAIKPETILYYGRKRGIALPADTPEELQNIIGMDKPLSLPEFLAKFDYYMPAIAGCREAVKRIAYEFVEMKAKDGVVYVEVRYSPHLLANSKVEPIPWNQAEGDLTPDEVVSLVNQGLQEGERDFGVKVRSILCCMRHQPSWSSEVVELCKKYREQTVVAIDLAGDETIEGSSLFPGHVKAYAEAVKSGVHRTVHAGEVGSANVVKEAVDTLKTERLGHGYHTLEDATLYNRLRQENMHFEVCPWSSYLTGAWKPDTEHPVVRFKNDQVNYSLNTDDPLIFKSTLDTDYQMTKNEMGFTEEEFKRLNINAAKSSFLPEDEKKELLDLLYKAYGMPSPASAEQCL
Method: The test of evaluating the inhibitory activity of each of the compounds against adenosine deaminase was carried out as given below.
Optical density of the reaction mixture obtained was measured with time (measured at the wave length of 265 nm), and the IC50 value of the tested compound against adenosine deaminase was calculated on the basis of decreases in the measured values of the optical density.

mice [2] = assay: Acute toxicity in mice, intraperitoneal administration; format: in vivo; conditions: 100 mg/kg
Escherichia coli = assay: Antibacterial activity of formycin A against Escherichia coli on bouillon-agar medium, with and without test compound; format: cell-based; conditions: for growth of Escherichia coli where test compound had permeated medium containing formycin A: test compound 1 mcg/ml, formycin A 100 mcg/ml in bouillon-agar medium, about 37°C
Method: In this test, an aqueous solution of each of the compounds to be tested, i.e. FCF, e-FCF, Ara-FCF or Ara-e-FCF, at a concentration of 1 mcg/ml, was added in the form of several drops on the surface of a bouillon-agar medium containing formycin A at a concentration of 100 mcg/ml to form a circular film of the said aqueous solution thereon. Then, the medium was allowed to stand to make the test compound permeate into the bouillon-agar layer. Subsequently, a strain of Escherichia coli was inoculated on the overall surface of said medium and the inoculated medium was incubated at about 37°C.

[3] = Stability in aqueous hydrochloric acid solution (pH 2), followed by thin-layer silica gel chromatography; format: physicochemical; conditions: water acidified with hydrochloric acid, pH 2, 25°C
Method: The test was carried out in accordance with the following method.
An aqueous solution (pH 2) of the test compound dissolved in water as acidified with hydrochloric acid was kept at 25°C, from which samples were taken out with time for analizing by thin-layer silica gel chromatography using acetonitrile-0.2 M aqueous ammonium chloride (3:1) as the development solvent. The spot of the test compound on the silica gel thin-layer was detected by using UV method, staining tests with conc. sulfuric acid and coloring tests with aqueous ammonium molybdate sulfuric acid solution, in combination, whereby the time (in hour) required for the test compound to disappear completely in the aqueous hydrochloric acid solution was determined. By way of comparison, coformycin and pentostatin were also tested by the same method.

mice [4] = conditions: intravenous administration, cited from earlier work
[5] = phosphate buffer 0.05 M, pH 7.4, 25°C, 5 minutes pre-incubation, substrate adenosine, read-out: Enzyme-inhibitory activity, IC50

| Compound | IC50 (adenosine deaminase; [5]) [nM] | growth of Escherichia coli where test compound had permeated medium containing formycin A (Escherichia coli) | Time (hours) required for complete disappearance of test compound in aqueous solution at pH 2 at 25°C [3] [hours] | other results |
| --- | --- | --- | --- | --- |
| NC1O[C@H](CO)[C@@H](O)[C@@H]1F (stereo partly drawn) [2-deoxy-2-fluoro-α,β-D-arabinofuranosyl amine] | – | – | – | MIC (Providencia sp. 2991): 100 µg/mL (≈ 662 µM); MIC [1]: 50 µg/mL (≈ 331 µM) |
| NC1O[C@H](CO)[C@@H](O)[C@H]1F (stereo partly drawn) [2-deoxy-2-fluoro-α,β-D-ribofuranosyl amine] | – | – | – | MIC (Providencia sp. 2991): 100 µg/mL (≈ 662 µM); MIC [1]: 50 µg/mL (≈ 331 µM) |
| OC[C@H]1O[C@@H](n2cnc3c2N=CNC[C@H]3O)[C@@H](F)[C@@H]1O [Ara-FCF, (8R)-3-(2-deoxy-2-fluoro-β-D-arabinofuranosyl)-3,6,7,8-tetrahydroimidazo [4,5-d][1,3]diazepin-8-ol] | 0.77 | the bacteria could not grow to form the circular inhibition zone | 15 | acute toxicity (death of mice) (mice [2]): no death of the mice |
| OC[C@H]1O[C@@H](n2cnc3c2N=CNC[C@@H]3O)[C@@H](F)[C@@H]1O [Ara-e-FCF, (8S)-3-(2-deoxy-2-fluoro-β-D-arabinofuranosyl)-3,6,7,8-tetrahydroimidazo[4,5-d][1,3]diazepin-8-ol] | 2200 | the bacteria could not grow to form the circular inhibition zone | – | – |
| OC[C@H]1O[C@@H](n2cnc3c2N=CNC[C@H]3O)[C@H](O)[C@@H]1O [Coformycin, (8R)-3-(β-D-ribofuranosyl)-3,6,7,8-tetrahydroimidazo[4,5-d][1,3]diazepin-8-ol] | – | – | 10 | IC50 (adenosine deaminase): 1.7 nM; acute toxicity (death of mice) (mice [4]; 12.5 mg/kg): cause the death of mice |
| OC[C@H]1O[C@@H](n2cnc3c2N=CNC[C@H]3O)[C@H](F)[C@@H]1O [FCF, (8R)-3-(2-deoxy-2-fluoro-β-D-ribofuranosyl)-3,6,7,8-tetrahydroimidazo [4,5-d][1,3]diazepin-8-ol] | 17 | the bacteria could not grow to form the circular inhibition zone | 15 | – |
| OC[C@H]1O[C@@H](n2cnc3c2NC=NC[C@H]3O)C[C@@H]1O [Pentostatin, 2'-deoxycoformycin, reference compound] | – | – | 1 | acute toxicity (body weight of tested mice) (mice [4]; 25 mg/kg): cause the decrease in the body weight of tested mice |
| OC[C@H]1O[C@@H](n2cnc3c2N=CNC[C@@H]3O)[C@H](F)[C@@H]1O [e-FCF, (8S)-3-(2-deoxy-2-fluoro-β-D-ribofuranosyl)-3,6,7,8-tetrahydroimidazo [4,5-d][1,3]diazepin-8-ol] | 100 | the bacteria could not grow to form the circular inhibition zone | – | – |
| Nc1ncnc2c([C@@H]3O[C@H](CO)[C@@H](O)[C@H]3O)n[nH]c12 [formycin A] | – | – | – | antibacterial activity against Escherichia coli (Escherichia coli; formycin A alone at 100 mcg/ml): no antibacterial activity |
